Test results reported in ChEMBL document CHEMBL1201862, “PubChem BioAssay data set” (2004).
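Each compound was tested at five concentrations against cells in 96-well plates for 48 hours. GI50 marks 50% less growth.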 The source made the active and inactive calls. Rule as the data show it: active = GI50 up to about 1.1 µM and inactive = higher.

What was measured:
Assay in all cases: growth of human tumour cells (NCI), 48 h
A549 = test system: A549
EKVX = test system: EKVX
HCT-116 = test system: HCT-116
HOP-62 = test system: HOP-62
IGROV-1 = test system: IGROV-1
KM12 = test system: KM12
LOX IMVI = test system: LOX IMVI
NCI-H226 = test system: NCI-H226
OVCAR-3 = test system: OVCAR-3
OVCAR-8 = test system: OVCAR-8
RPMI-8226 = test system: RPMI-8226
SF-295 = test system: SF-295
SK-MEL-5 = test system: SK-MEL-5
SNB-75 = test system: SNB-75
SR = test system: SR
UO-31 = test system: UO-31
HCC 2998 = test system: HCC 2998
NCI-H460 = test system: NCI-H460
SNB-19 = test system: SNB-19

Structure (SMILES)	GI50 (A549)	GI50 (EKVX)	GI50 (HCT-116)	GI50 (HOP-62)	GI50 (IGROV-1)	GI50 (KM12)	GI50 (LOX IMVI)	GI50 (NCI-H226)	GI50 (OVCAR-3)	GI50 (OVCAR-8)	GI50 (RPMI-8226)	GI50 (SF-295)	GI50 (SK-MEL-5)	GI50 (SNB-75)	GI50 (SR)	GI50 (UO-31)	GI50 (HCC 2998)	GI50 (NCI-H460)	GI50 (SNB-19)
C#CCOC(=O)C(N)CCSC (stereo not given)	> 100 µM (inactive)	> 100 µM (inactive)	> 100 µM (inactive)	> 100 µM (inactive)	> 100 µM (inactive)	> 100 µM (inactive)	> 100 µM (inactive)	> 100 µM (inactive)	> 100 µM (inactive)	> 100 µM (inactive)	> 100 µM (inactive)	> 100 µM (inactive)	> 100 µM (inactive)	> 100 µM (inactive)	> 100 µM (inactive)	> 100 µM (inactive)			
CCCCc1ccc(Nc2nc(N)c3[nH]cnc3n2)cc1	21.3 µM (inactive)	19.6 µM (inactive)	17.1 µM (inactive)		12.1 µM (inactive)	18.3 µM (inactive)	18.4 µM (inactive)	8.73 µM (inactive)	20.7 µM (inactive)	15.8 µM (inactive)	25.4 µM (inactive)	25.9 µM (inactive)	17 µM (inactive)			12.7 µM (inactive)	24 µM (inactive)	22.9 µM (inactive)	17.8 µM (inactive)
CC(C)(C)n1c(=O)n2n(c1=O)Cc1cccc3cccc(c13)C2	26.7 µM (inactive)	15 µM (inactive)	15.1 µM (inactive)	14 µM (inactive)	11.3 µM (inactive)	14.7 µM (inactive)	23.8 µM (inactive)		15.4 µM (inactive)	17.8 µM (inactive)	14 µM (inactive)	17 µM (inactive)	19.5 µM (inactive)	0.834 µM (active)	6.7 µM (inactive)	22.1 µM (inactive)	21.9 µM (inactive)	10.7 µM (inactive)	25.6 µM (inactive)
COc1cc2c(cc1O)C1CC(CC3CCCCN31)OC(=O)/C=C\c1ccc(O)c-2c1 (stereo not given)	57 µM (inactive)	41.6 µM (inactive)	27.9 µM (inactive)		24.7 µM (inactive)	16.4 µM (inactive)	16.7 µM (inactive)	41.4 µM (inactive)	21.3 µM (inactive)	21.6 µM (inactive)	27 µM (inactive)	13.5 µM (inactive)	16.8 µM (inactive)	10.2 µM (inactive)		25.9 µM (inactive)	18.2 µM (inactive)	37.1 µM (inactive)	63 µM (inactive)
O=C1c2ccccc2C2(c3ccc(F)cc3)NCCN12 (stereo not given)	> 100 µM (inactive)	> 100 µM (inactive)	> 100 µM (inactive)	> 100 µM (inactive)	> 100 µM (inactive)	> 100 µM (inactive)		> 100 µM (inactive)	> 100 µM (inactive)	> 100 µM (inactive)	> 100 µM (inactive)	> 100 µM (inactive)	> 100 µM (inactive)	> 100 µM (inactive)		> 100 µM (inactive)	> 100 µM (inactive)	> 100 µM (inactive)	> 100 µM (inactive)
O=c1c(C(c2ccc(/C=C/c3ccccc3)cc2)c2c(O)oc3cc(O)ccc3c2=O)c(O)oc2cc(O)ccc12	> 100 µM (inactive)	> 100 µM (inactive)	> 100 µM (inactive)	> 100 µM (inactive)	> 100 µM (inactive)	> 100 µM (inactive)	36.7 µM (inactive)	> 100 µM (inactive)	> 100 µM (inactive)	98.6 µM (inactive)	39.6 µM (inactive)	> 100 µM (inactive)	21.8 µM (inactive)	29 µM (inactive)		56.9 µM (inactive)	> 100 µM (inactive)	> 100 µM (inactive)	> 100 µM (inactive)
CCN(CC)Cc1ccc(Nc2c3ccccc3nc3ccccc23)cc1	1.28 µM (inactive)	3.3 µM (inactive)	1.16 µM (inactive)	2.38 µM (inactive)	3 µM (inactive)	3.17 µM (inactive)	1.56 µM (inactive)		3.03 µM (inactive)	3.05 µM (inactive)		2.62 µM (inactive)	1.71 µM (inactive)		2.17 µM (inactive)	1.9 µM (inactive)	1.08 µM (active)	1.19 µM (inactive)	1.35 µM (inactive)
O=C(Cn1nnc(-c2ccccc2)n1)N/N=C/c1cn(Cc2ccc(Cl)cc2Cl)c2ccccc12	51.5 µM (inactive)	44.5 µM (inactive)	> 100 µM (inactive)	> 100 µM (inactive)	> 100 µM (inactive)	> 100 µM (inactive)	> 100 µM (inactive)		> 100 µM (inactive)	> 100 µM (inactive)	> 100 µM (inactive)	63.2 µM (inactive)	> 100 µM (inactive)	45.1 µM (inactive)	63.1 µM (inactive)	> 100 µM (inactive)		> 100 µM (inactive)	> 100 µM (inactive)
Cc1c(C)c(C)c(CSC(=N)N)c(C)c1C	17.2 µM (inactive)	14.8 µM (inactive)	12.7 µM (inactive)	15.5 µM (inactive)	33.6 µM (inactive)	18.4 µM (inactive)	26.2 µM (inactive)	13.6 µM (inactive)	16.5 µM (inactive)	24.1 µM (inactive)	12.6 µM (inactive)	7.52 µM (inactive)	13.7 µM (inactive)	15.6 µM (inactive)		6.52 µM (inactive)	14.7 µM (inactive)	13.2 µM (inactive)	14.6 µM (inactive)
O=C(NC(=O)c1ccccc1)OC(c1ccccc1)C1CO1 (stereo not given)	> 100 µM (inactive)	> 100 µM (inactive)	> 100 µM (inactive)	> 100 µM (inactive)	> 100 µM (inactive)	> 100 µM (inactive)	> 100 µM (inactive)	> 100 µM (inactive)	> 100 µM (inactive)	> 100 µM (inactive)	> 100 µM (inactive)	> 100 µM (inactive)	> 100 µM (inactive)	> 100 µM (inactive)		> 100 µM (inactive)	> 100 µM (inactive)	> 100 µM (inactive)	> 100 µM (inactive)
CO[C@H]1C=C[C@]23c4cc5c(cc4CN(CC2O)[C@@H]3C1)OCO5 (stereo not given in full)	3.2 µM (inactive)	3.57 µM (inactive)	1.97 µM (inactive)		1.37 µM (inactive)	3.09 µM (inactive)	2.18 µM (inactive)	6.9 µM (inactive)	1.9 µM (inactive)	3.08 µM (inactive)	2.82 µM (inactive)	0.375 µM (active)	2.29 µM (inactive)	2.36 µM (inactive)		2.04 µM (inactive)	2.58 µM (inactive)	1.53 µM (inactive)	2.17 µM (inactive)
CN(C(=O)[C@@H](NC(=O)OC(C)(C)C)c1ccccc1)[C@H]1CCCC[C@@H]1N1CCCC1	> 100 µM (inactive)	> 100 µM (inactive)	> 100 µM (inactive)	> 100 µM (inactive)	> 100 µM (inactive)	> 100 µM (inactive)		> 100 µM (inactive)	> 100 µM (inactive)	> 100 µM (inactive)	> 100 µM (inactive)	> 100 µM (inactive)	> 100 µM (inactive)		> 100 µM (inactive)	> 100 µM (inactive)			> 100 µM (inactive)
Cc1nc2c(=S)[nH]ncc2[nH]1	> 100 µM (inactive)	> 100 µM (inactive)	> 100 µM (inactive)	> 100 µM (inactive)	> 100 µM (inactive)	> 100 µM (inactive)	> 100 µM (inactive)	> 100 µM (inactive)	> 100 µM (inactive)	> 100 µM (inactive)	> 100 µM (inactive)	> 100 µM (inactive)	> 100 µM (inactive)	> 100 µM (inactive)		> 100 µM (inactive)	> 100 µM (inactive)		> 100 µM (inactive)
CC(C)(C)NC(=O)/C(=C\Sc1ccccc1)c1ccc2c(c1)OCO2	31 µM (inactive)	28.4 µM (inactive)	24.3 µM (inactive)	44.3 µM (inactive)	29.2 µM (inactive)	32.4 µM (inactive)	16.1 µM (inactive)		30.8 µM (inactive)	32 µM (inactive)	22.8 µM (inactive)	39.1 µM (inactive)	17.6 µM (inactive)		25.8 µM (inactive)	26.9 µM (inactive)	37.3 µM (inactive)		38.7 µM (inactive)
CCOC(=O)c1nnc2c(C#N)c(-c3ccccc3)c(C)n2c1N	39.9 µM (inactive)	38 µM (inactive)	42.2 µM (inactive)	85.7 µM (inactive)	22.2 µM (inactive)	30.6 µM (inactive)	34.7 µM (inactive)		29.4 µM (inactive)	28.4 µM (inactive)	22.7 µM (inactive)	34.1 µM (inactive)	39.9 µM (inactive)		36.1 µM (inactive)	33.4 µM (inactive)	32.5 µM (inactive)	39.8 µM (inactive)	21.3 µM (inactive)
N#Cc1c(-c2cccc(Cl)c2)cc(-c2ccc(Cl)cc2)nc1N	17.5 µM (inactive)	15.6 µM (inactive)	16.5 µM (inactive)	17.3 µM (inactive)	10.1 µM (inactive)	25.2 µM (inactive)	17.1 µM (inactive)	16.3 µM (inactive)	23.7 µM (inactive)	24.6 µM (inactive)	18.1 µM (inactive)	17.2 µM (inactive)	16.1 µM (inactive)		15.3 µM (inactive)	14.2 µM (inactive)		18.8 µM (inactive)	11.9 µM (inactive)
